# Target: T1, Ba/F3 cell EGFR Exon20 ins NPH (Homo sapiens, UniProt P00533, INS773NPH)
# T1 construct: expressed in transfected cells; host or cells: Ba/F3
# Experiment: Ba/F3 cell proliferation suppression, EGFR Exon20 ins NPH
# Format: cell-based
# Settings: GI50 class; Ba/F3 cell line with NPH inserted at Exon20 of EGFR; 72 hours
# Summary of the method: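 72 h compound exposure, 0.3 nM–50 um (12 points, 3:1 dilution in DMSO); viability by CellTiter-Glo luminescence. Ba/F3 medium: RPMI-1640, 10% FBS, 5 ng/ml IL-3, 1 ug/ml puromycin for transduced cells. GI50 vs control, n=3.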
row,SMILES,Ba/F3 (NPH) Activity
1,"C=CC(=O)Nc1cc(Nc2cc(N3OCC[C@@H]3c3ccc(F)cc3F)ncn2)c(OC)cc1N1CCC(N(C)CCOC)CC1 [compound 387, N-(5-((6-((R)-3-(2,4-difluorophenyl)isoxazolidine-2-yl)pyrimidine-4-yl)amino)-4-methoxy-2-(4-((2-methoxyethyl)(methyl)amino)piperidine-1-yl)phenyl)acrylamide]",A (GI50 < 50 nM)
2,"C=CC(=O)Nc1cc(Nc2cc(N3OCC[C@@H]3c3ccc(F)c(Cl)c3F)ncn2)c(OC)cc1N1CCC(N2CCN(C3CCC3)CC2)CC1 [Example 193, N-(5-((6-((R)-3-(3-chloro-2,4-difluorophenyl)isoxazolidine-2-yl)pyrimidine-4-yl)amino)-2-(4-(4-cyclobutylpiperazine-1-yl)piperidine-1-yl)-4-methoxyphenyl) acrylamide]",A (GI50 < 50 nM)
3,"C=CC(=O)Nc1cc(Nc2cc(N3OCC[C@@H]3c3cc(F)cc(F)c3)ncn2)c(OC)cc1N1CCC(N2C[C@@H](C)N(C3CC3)C[C@@H]2C)CC1 [Example 108, N-(2-(4-((2S,5R)-4-cyclopropyl-2,5-dimethylpiperazine-1-yl)piperidine-1-yl)-5-((6-((R)-3-(3,5-difluorophenyl)isoxazolidine-2-yl)pyrimidine-4-yl)amino)-4-methoxyphenyl) acrylamide]",A (GI50 < 50 nM)
4,"C=CC(=O)Nc1cc(Nc2cc(N3OCC[C@@H]3Cc3cccc(Cl)c3F)ncn2)c(OC)cc1N(C)CCN(C)C [compound 1016, N-(5-((6-((S)-3-(3-chloro-2-fluorobenzyl)isoxazolidine-2-yl)pyrimidine-4-yl)amino)-2-((2-(dimethylamino)ethyl)(methyl)amino)-4-methoxyphenyl) acrylamide]",A (GI50 < 50 nM)
5,"C=CC(=O)Nc1cc(Nc2cc(N3OCC[C@@H]3c3ccc(F)c(F)c3)ncn2)c(OC)cc1N1CC[C@@H](N2CCOCC2)C1 [compound 578, N-(5-((6-((R)-3-(3,4-difluorophenyl)isoxazolidine-2-yl)pyrimidine-4-yl)amino)-4-methoxy-2-((R)-3-morpholinopyrolidine-1-yl)phenyl)acrylamide]",B (50 nM ≤ GI50 < 500 nM)
6,"C=CC(=O)Nc1cc(Nc2cc(N3OCC[C@@H]3c3cc(F)ccc3F)ncn2)c(OC)cc1N1CCC(N2C[C@H](C)N(C3CC3)C[C@H]2C)CC1 [Example 173, N-(2-(4-((2R,5S)-4-cyclopropyl-2,5-dimethylpiperazine-1-yl)piperidine-1-yl)-5-((6-((R)-3-(2,5-difluorophenyl)isoxazolidine-2-yl)pyrimidine-4-yl)amino)-4-methoxyphenyl) acrylamide]",A (GI50 < 50 nM)
7,"C=CC(=O)Nc1cc(Nc2cc(N3OCC[C@@H]3c3cccc(C(F)(F)F)c3)ncn2)c(OC)cc1N1CC[C@@H](N2CCOCC2)C1 [compound 506, N-(4-methoxy-2-((R)-3-morpholinopyrolidine-1-yl)-5-((6-((R)-3-(3-(trifluoromethyl)phenyl)isoxazolidine-2-yl)pyrimidine-4-yl)amino)phenyl)acrylamide]",A (GI50 < 50 nM)
8,"C=CC(=O)Nc1cc(Nc2cc(N3OCC[C@@H]3c3c(F)ccc(F)c3Cl)ncn2)c(OC)cc1N1CCC(N2CCN(C3CC3)[C@H](C)C2)CC1 [compound 935, N-(5-((6-((R)-3-(2-chloro-3,6-difluorophenyl)isoxazolidine-2-yl)pyrimidine-4-yl)amino)-2-(4-((R)-4-cyclopropyl-3-methylpiperazine-1-yl)piperidine-1-yl)-4-methoxyphenyl) acrylamide]",A (GI50 < 50 nM)
9,"C=CC(=O)Nc1cc(Nc2cc(N3OCC[C@@H]3c3c(F)ccc(F)c3F)ncn2)c(OC)cc1N1CCC(N2CCO[C@@H](C)C2)CC1 [compound 645, N-(4-methoxy-2-(4-((S)-2-methylmorpholino)piperidine-1-yl)-5-((6-((R)-3-(2,3,6-trifluorophenyl)isoxazolidine-2-yl)pyrimidine-4-yl)amino)phenyl)acrylamide]",A (GI50 < 50 nM)
